Data reported in paper PMC9926234, “Iterative computational design and crystallographic screening identifies potent inhibitors targeting the Nsp3 macrodomain of SARS-CoV-2” (Proceedings of the National Academy of Sciences of the …, 2023).

biological target: SARS-CoV-2 NSP3 Mac1 (Severe acute respiratory syndrome coronavirus 2, UniProt P0DTD1); assay type: binding; design: contains a conserved macrodomain enzyme (Mac1); details: DSF dose responsiveness, 1 µM nsp3 mac1; adj p given
Protocol: DSF and associated compound handling was performed as described ([12]), with 5 µM dye “Fluorescent Yellow” (Jacquard iDye Cat #JID1405) used in place of SYPRO Orange. Compounds were tested in triplicate, at seven concentrations in two-fold serial dilutions, at a top concentration of either 1,000 or 100 μM. To minimize experimental noise arising from plate location-based effects on Tma, all concentrations and replicates for each compound were tested within a single region of the microtiter plates, including a DMSO-only control from which ΔTmas were calculated for that compound. […] For each compound, to determine statistical significance of the dose responsive thermal shift, the Spearman’s coefficient was calculated between compound concentration and ΔTma.

Going from `O=C(c1c(F)ccc(O)c1F)N1CCC(Oc2cccc(F)c2)C1` (stereo not shown) [ZINC000368135547] to `Cc1ccc(C(=O)N2CC[C@H](Oc3ccccc3)C2)cc1O` [ZINC000371562024], the “Spearman est (compound concentration vs apparent Tm)” value rises from −0.88 to −0.6.

Compared with `Cc1nc(S(=O)(=O)NCc2ccc(-c3ccncc3)cc2)cn1C` [ZINC000352487041], `CC1CN(C(=O)CCc2nc(-c3ccncc3)no2)C1c1ccccc1` (stereo not shown) [ZINC000173980856] is lower in “Spearman est (compound concentration vs apparent Tm)” value: 0.73 for the first, 0.61 for the second.

Going from `O=C(Nc1cccnc1)Nc1ccc2ccccc2n1` [Z4718398614] to `O=C(NCc1nc2ccccc2c(=O)[nH]1)Nc1cccnc1` [Z4718398598], the “Spearman est (compound concentration vs apparent Tm)” value rises from −0.43 to −0.41.

Going from `O=C1CCCN1CCSc1ncnc2[nH]cnc12` [ZINC000118179920] to `CC1C(=O)CCCN1C(=O)c1ccnc2[nH]cnc12` (stereo not shown) [ZINC000885048835], the “Spearman est (compound concentration vs apparent Tm)” value falls from 0.78 to 0.23.

Compared with `OCc1cn(C2CCCN(c3ncnc4[nH]ccc34)C2)nn1` (stereo not shown) [ZINC000292637864], `c1csc(CC2CCN(c3ncnc4[nH]ccc34)C2)n1` (stereo not shown) [ZINC000897286891] is lower in “Spearman est (compound concentration vs apparent Tm)” value: 0.65 for the first, −0.05 for the second.

Compared with `Cc1cc(C)nc(CSc2nnc3c(=O)[nH]c4ccccc4n23)c1` [ZINC001652467570], `CNS(=O)(=O)c1cccc(-c2ncnc3[nH]c4ccccc4c23)c1` [ZINC001240776402] is lower in “Spearman est (compound concentration vs apparent Tm)” value: 0.44 for the first, −0.29 for the second.

Going from `NC(=O)c1cc(N2CCCC[C@H]2C(=O)O)ncn1` [REAL250003324764] to `NC(=O)C1CCCN(c2ncnc3[nH]c4cc(F)ccc4c23)C1` (stereo not shown) [LL1_0016], the “Spearman est (compound concentration vs apparent Tm)” value rises from 0.14 to 0.18.

First: O=c1[nH]nc(C2CCCN(c3ncnc4[nH]c(Cl)cc34)C2)o1 (stereo not shown) [ZINC001559178387]
Second: CS(=O)(=O)C1CCCN(c2ncnc3[nH]c(Cl)cc23)C1 (stereo not shown) [ZINC000865679550]
The “Spearman est (compound concentration vs apparent Tm)” value of the first is lower: −0.22 for the first, 0.71 for the second.

Compared with `O=C1CCCN1Cc1cccc(N2C(=O)N[C@@H](CO)C2=O)c1` [ZINC001320848619], `Cc1ccc(-c2noc(CCCSC3CCCNC3=O)n2)cc1F` (stereo not shown) [ZINC000359061121] is higher in “Spearman est (compound concentration vs apparent Tm)” value: 0.18 for the first, 0.71 for the second.

First: COc1ccc(Cl)cc1Cn1cnc2c(N)ncnc21 [ZINC000110510953]
Second: Cc1nc(Cn2cnc3c(N)nc(N)nc32)cs1 [Z4718398569]
The “Spearman est (compound concentration vs apparent Tm)” value of the first is higher: 0.55 for the first, 0.06 for the second.

Going from `Nc1nc(N)c2ncn(C3CN(C(=O)Cc4cccnc4)C3)c2n1` [ZINC001156036512] to `Nc1nc(N)c2ncn(Cc3csc(C4CC4)n3)c2n1` [Z4718398585], the “Spearman est (compound concentration vs apparent Tm)” value rises from 0.06 to 0.75.

First: Cc1nc(Cc2noc(-c3ncnc4[nH]ccc34)n2)no1 [ZINC000904346960]
Second: CC(C)c1noc(CCc2nc(-c3ccnc4[nH]ccc34)no2)n1 [ZINC000351161347]
The “Spearman est (compound concentration vs apparent Tm)” value of the first is higher: 0.21 for the first, −0.81 for the second.

First: Cc1cc(-n2cncn2)ccc1C(=O)OCC1OCCc2ccccc21 (stereo not shown) [ZINC000745413896]
Second: O=C1CSc2cc(C(=O)OC3c4ccccc4CC3F)ccc2N1 (stereo not shown) [Z4718398554]
The “Spearman est (compound concentration vs apparent Tm)” value of the first is higher: 0.55 for the first, −0.18 for the second.

First: Cc1ccc(NS(=O)(=O)c2ccc(C(F)(F)F)cn2)c(O)n1 [ZINC000359659274]
Second: Fc1ccc(F)c(Sc2ncnc3[nH]ccc23)c1 [ZINC000339235289]
The “Spearman est (compound concentration vs apparent Tm)” value of the first is higher: 0.61 for the first, 0.01 for the second.

First: O=C(c1cccc(O)c1)N1CCC(Nc2ccccc2)C1 (stereo not shown) [ZINC000182324508]
Second: O=C(c1cccc(O)c1)N1CC=C(c2ccccc2)C1 [ZINC000336444141]
The “Spearman est (compound concentration vs apparent Tm)” value of the first is lower: 0.13 for the first, 0.55 for the second.

First: CN(Cc1nnc2c(=O)[nH]ccn12)c1cc(Cl)nc(C2CC2)n1 [ZINC000882897766]
Second: Cc1ccc(-c2noc(C3CC(=O)N(c4cn[nH]c4)C3)n2)cc1 (stereo not shown) [ZINC000189176019]
The “Spearman est (compound concentration vs apparent Tm)” value of the first is higher: −0.19 for the first, −0.48 for the second.

Going from `O=S1(=O)CCC2(CCCN(c3ncnc4[nH]c5cc(F)ccc5c34)C2)C1` (stereo not shown) [LL1_0010] to `c1ccc2c(c1)N(c1ncnc3[nH]ccc13)CC21CC1` [ZINC000352369310], the “Spearman est (compound concentration vs apparent Tm)” value falls from 0.3 to −0.82.

`Cc1ccccc1CNc1ncnc(-c2ccccc2)n1` [ZINC001184571635] and `CCOC(=O)C(NC(=O)c1c[nH]c2ncncc12)c1c[nH]c2ccccc12` (stereo not shown) [Z4661819167] are the same in “Spearman est (compound concentration vs apparent Tm)” value: 0.82 for the first, 0.82 for the second.

Going from `CC1CCc2n[nH]cc2C1C(=O)N(C)OCc1ccccc1` (stereo not shown) [ZINC000879258074] to `CN(C(=O)CN1CCNC(=O)C1)c1ccc(-c2nccs2)cc1` [ZINC000910053700], the “Spearman est (compound concentration vs apparent Tm)” value falls from 0.45 to −0.73.

Compared with `NC(=O)c1ccc(CCSc2cccc(F)c2)cc1` [ZINC001165768885], `NC(=O)c1ccc(Cc2noc(CCc3ccoc3)n2)cc1` [ZINC000546336511] is lower in “Spearman est (compound concentration vs apparent Tm)” value: −0.73 for the first, −0.79 for the second.

First: CNc1ccc(C(=O)N2CC(C(=O)O)CC23CCOCC3)cn1 (stereo not shown) [REAL300007318908]
Second: CN1C(=O)[C@H]2CN(C(=O)c3ncnc4[nH]ccc34)C[C@H]2C1=O [ZINC001119059028]
The “Spearman est (compound concentration vs apparent Tm)” value of the first is higher: 0.29 for the first, −0.58 for the second.

Compared with `COC(=O)C1Cc2c(O)cccc2C1NC(=O)c1ccc(NC(=O)NC2CC2)cc1` (stereo not shown) [8539_0076], `Cc1n[nH]c2ncc(CN3CC(C)Oc4c(F)cccc43)cc12` (stereo not shown) [ZINC000361138637] is higher in “Spearman est (compound concentration vs apparent Tm)” value: −0.19 for the first, 0.07 for the second.

same assay, conditions: maximal thermal upshift

With `NC(=O)c1cc(N2CCCC[C@H]2C(=O)O)ncn1` [REAL250003324764] the “DSF max dTma” value was 0.15 ˚C.
For `O=C1CCCN1Cc1cccc(N2C(=O)N[C@@H](CO)C2=O)c1` [ZINC001320848619], the “DSF max dTma” value was 0.2 ˚C.
`CC1C(=O)CCCN1C(=O)c1ccnc2[nH]cnc12` (stereo not shown) [ZINC000885048835] was tested, and the “DSF max dTma” value was 0.16 ˚C.
`NC(=O)C1CCCN(c2ncnc3[nH]c4cc(F)ccc4c23)C1` (stereo not shown) [LL1_0016] was tested, and the “DSF max dTma” value was 0.6 ˚C.
For `Nc1nc(N)c2ncn(C3CN(C(=O)Cc4cccnc4)C3)c2n1` [ZINC001156036512], the “DSF max dTma” value was 0.61 ˚C.
For `Cc1nc(Cc2noc(-c3ncnc4[nH]ccc34)n2)no1` [ZINC000904346960], the “DSF max dTma” value was 0.27 ˚C.
In the case of `Cc1ccc(NS(=O)(=O)c2ccc(C(F)(F)F)cn2)c(O)n1` [ZINC000359659274], the “DSF max dTma” value is reported as 0.65 ˚C.
`CNS(=O)(=O)c1cccc(-c2ncnc3[nH]c4ccccc4c23)c1` [ZINC001240776402] was tested, and the “DSF max dTma” value was 0.27 ˚C.
With `O=S1(=O)CCC2(CCCN(c3ncnc4[nH]c5cc(F)ccc5c34)C2)C1` (stereo not shown) [LL1_0010] the “DSF max dTma” value was 0.68 ˚C.
In the case of `CNc1ccc(C(=O)N2CC(C(=O)O)CC23CCOCC3)cn1` (stereo not shown) [REAL300007318908], the “DSF max dTma” value is reported as 0.04 ˚C.
For `COC(=O)C1Cc2c(O)cccc2C1NC(=O)c1ccc(NC(=O)NC2CC2)cc1` (stereo not shown) [8539_0076], the “DSF max dTma” value was 0 ˚C.
`CN1C(=O)[C@H]2CN(C(=O)c3ncnc4[nH]ccc34)C[C@H]2C1=O` [ZINC001119059028] was tested, and the “DSF max dTma” value was 0 ˚C.

same assay, conditions: maximal thermal upshift vs DMSO control

Going from `O=C(Nc1cccnc1)Nc1ccc2ccccc2n1` [Z8614] to `O=C(Nc1cccnc1)Nc1nc2ccccc2c(=O)[nH]1` [Z8593], the “DSF max dTma” value falls from 0.06 °C to 0 °C.

First: CC1c2ccc(F)cc2CCN1C(=O)c1cccc(O)c1 (stereo not shown) [Z5167]
Second: O=C(c1cccc(O)c1)N1CCC(Nc2ccccc2)C1 (stereo not shown) [Z4508]
The “DSF max dTma” value of the first is lower: 0 °C for the first, 0.37 °C for the second.

First: c1ccc2c(-c3noc(CCCc4nc(C5CC5)no4)n3)n[nH]c2c1 [Z9652]
Second: Cc1ccc(-c2noc(CCCSC3CCCNC3=O)n2)cc1F (stereo not shown) [Z1121]
The “DSF max dTma” value of the first is higher: 0.72 °C for the first, 0.57 °C for the second.

First: O=c1[nH]ccn2c(CSc3nc4ccccc4s3)nnc12 [Z1015]
Second: CN(Cc1nnc2c(=O)[nH]ccn12)C(=O)COC1CC1 [Z0288]
The “DSF max dTma” value of the first is higher: 0.67 °C for the first, 0.49 °C for the second.

Compared with `Cc1ccc(C(=O)N2CC[C@H](Oc3ccccc3)C2)cc1O` [Z2024], `Cc1ccccc1CNc1ncnc(-c2ccccc2)n1` [Z1635] is higher in “DSF max dTma” value: 0.36 °C for the first, 0.85 °C for the second.

First: Clc1cc2c(N3CCCC(c4nnc[nH]4)C3)ncnc2[nH]1 (stereo not shown) [Z7156]
Second: Clc1cc2c(N3CCCC(c4cccnc4)C3)ncnc2[nH]1 (stereo not shown) [Z8680]
The “DSF max dTma” value of the first is higher: 0.86 °C for the first, 0.25 °C for the second.

First: Cc1ccc(-c2noc(C3CC(=O)N(c4cn[nH]c4)C3)n2)cc1 (stereo not shown) [Z6019]
Second: Cc1ccccc1CC(C)c1nc(-c2cc(N)ncn2)no1 (stereo not shown) [Z4066]
The “DSF max dTma” value of the first is lower: 0.27 °C for the first, 0.98 °C for the second.

Compared with `CN(c1cc(NC2CC2)ncn1)C1CCCN(c2cccnn2)C1` (stereo not shown) [Z3167], `CC(C(=O)N1CCCC1c1nc(C(N)=O)no1)c1cccc(F)c1` (stereo not shown) [Z4135] is lower in “DSF max dTma” value: 0.44 °C for the first, 0.15 °C for the second.

First: NC(=O)c1ccc(CCSc2cccc(F)c2)cc1 [Z8885]
Second: O=C(Cc1ccc2c(c1)CCO2)OCc1cc2ccccc2[nH]c1=O [Z0132]
The “DSF max dTma” value of the first is lower: 0.09 °C for the first, 0.21 °C for the second.

Going from `Cc1n[nH]c2ncc(CN3CC(C)Oc4c(F)cccc43)cc12` (stereo not shown) [Z8637] to `Nc1ncnc(SCCc2cccc(Cl)c2Cl)n1` [Z1086], the “DSF max dTma” value rises from 0.16 °C to 0.21 °C.
